From patent publication US8436043B2 (Takeda Pharmaceutical Company Limited, priority 2008, dated 2013) come the findings set out here.

One assay concerns the target T1, human glucagon receptor (Homo sapiens, UniProt P47871).
T1 construct: made in house; host or cells: FreeStyle CHO cells, transient transfection with pMSRαneo/hGCGR; membrane fraction (35,000 rpm pellet)
Briefly: Glucagon binding inhibitory activity ([125I]-glucagon binding to glucagon receptor membrane protein). As to conditions: for pIC50: human glucagon receptor membrane protein, [125I]-glucagon, 90 min room temperature; for inhibition at 10 µM: read-out: inhibitory rate (%) at 10 μM. The procedure, abridged: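 Receptor source was a membrane fraction of transiently transfected CHO cells bearing human receptor; 90 min room-temperature binding, filtration harvest, scintillation counting.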

The subject of assay [1] is glucagon-induced blood glucose increase. Briefly: Suppressive action test for glucagon-induced blood glucose increase (rat). Type of assay: in vivo. As to conditions: SD rats male, 10 mg/kg oral, glucagon 15 μg/kg s.c. 60 min later, blood glucose 20 min after glucagon. Here is the method: Suppressive Action Test for Glucagon-Induced Blood Glucose Increase (Rat)
Full feeding SD rats (male, 7- to 9-week-old) were fasted, 0.5% methylcellulose suspension containing a test compound (10 mg/kg body weight) (compound administration group, 5 rats per group) or 0.5% methylcellulose suspension (compound non-administration group, 12 rats, per group) was orally administered, and 60 min later, glucagon (15 μg/kg body weight, Novo Nordisk Pharma Ltd.) was subcutaneously administered. At 20 min from the glucagon administration, blood samples were collected from the rat tail vein and the blood glucose was measured using a self-testing glucose kit ACCU-CHEK (Roche Diagnostics K.K.). In addition, as a non-treatment group (5 rats per group), the blood glucose of rat (compound non-treatment group) free of glucagon administration was measured in the same manner as above.
The difference between the blood glucose of compound non-administration group or compound administration group and the blood glucose of non-treatment group was calculated. The percentage of “the difference between blood glucose of compound administration group and blood glucose of non-treatment group” was obtained as “blood glucose increase rate (% of control)” where “the difference between blood glucose of compound non-administration group and that of non-treatment group” is 100%.

Where [2] appears, read: test compound 10 μM, 0.4% DMSO = 0%, non-labeled glucagon 1 μM = 100%.

pIC50: −log10 of the molar value.

T1 sequence (P47871 26-477): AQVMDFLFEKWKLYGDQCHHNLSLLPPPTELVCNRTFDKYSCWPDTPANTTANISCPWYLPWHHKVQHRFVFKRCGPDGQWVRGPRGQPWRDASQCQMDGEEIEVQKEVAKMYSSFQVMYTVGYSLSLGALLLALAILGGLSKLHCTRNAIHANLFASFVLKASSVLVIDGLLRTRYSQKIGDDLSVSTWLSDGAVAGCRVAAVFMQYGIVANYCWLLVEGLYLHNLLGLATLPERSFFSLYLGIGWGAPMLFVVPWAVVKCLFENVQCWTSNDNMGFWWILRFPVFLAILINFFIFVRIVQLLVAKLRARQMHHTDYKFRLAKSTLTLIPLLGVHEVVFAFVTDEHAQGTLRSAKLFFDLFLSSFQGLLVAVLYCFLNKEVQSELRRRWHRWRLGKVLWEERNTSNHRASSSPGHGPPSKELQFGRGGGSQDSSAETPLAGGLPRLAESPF

In general, pIC50 refers to the IC50 on a negative log10 scale, so that one unit is a factor of ten. With `Cc1c(C(Nc2ccc(C(=O)N(C)CCC(=O)O)cn2)C2CCCCC2)oc2ccc(F)cc12` (single isomer, unassigned) [Example A53, 3-{[(6-{[cyclohexyl(5-fluoro-3-methyl-1-benzofuran-2-yl)methyl]amino}pyridin-3-yl)carbonyl](methyl)amino}propanoic acid], the pIC50 at human glucagon receptor was 6.24. Also, the inhibition at 10 µM on human glucagon receptor (setting [2]) worked out at 83%. Besides, the “blood glucose increasing rate (% of control)” value in assay [1] was 27.4 % of control. `CCC(CC)C(Nc1ccc(C(=O)N(C)CCC(=O)O)cc1)c1oc2ccc(F)cc2c1C` (single isomer, unassigned) [Example A73, 3-{[(4-{[2-ethyl-1-(5-fluoro-3-methyl-1-benzofuran-2-yl)butyl]amino}phenyl)carbonyl](methyl)amino}propanoic acid] had a pIC50 at human glucagon receptor of 6.05. In addition, the inhibition at 10 µM on human glucagon receptor (setting [2]) was determined as 87%. Besides, the “blood glucose increasing rate (% of control)” value in assay [1] is on record as 24.2 % of control. As to `Cc1c(C(Nc2ccc(C(=O)N(C)CCC(=O)O)cc2)C2CCCCC2)oc2ccc(OC3CCOCC3)cc12` (single isomer, unassigned) [Example A83, 3-[{[4-({cyclohexyl[3-methyl-5-(tetrahydro-2H-pyran-4-yloxy)-1-benzofuran-2-yl]methyl}amino)phenyl]carbonyl}(methyl)amino]propanoic acid], at human glucagon receptor, the negative-log IC50 (pIC50) was 7.08. Moreover, at human glucagon receptor (setting [2]), the inhibition at 10 µM stood at 93%. In assay [1], the “blood glucose increasing rate (% of control)” value is 43.0 % of control.

Regarding `Cc1c(C(Nc2ccc(C(=O)N(C)CCC(=O)O)cc2)C2CCCCC2)oc2ccccc12` (stereo not drawn) [Example A41], the “inhibitory rate (%) at 10 μM” value on human glucagon receptor (setting [2]) came out at 86%. Also, in assay [1], the “blood glucose increasing rate (% of control)” value is 16.6 % of control. In the case of `Cc1c(C(Nc2ccc(C(=O)N(C)CCC(=O)O)cc2)C2CCCCC2)oc2ccc(Oc3ccccn3)cc12` (stereo not drawn) [Example A200, 3-[{[4-({cyclohexyl[3-methyl-5-(pyridin-2-yloxy)-1-benzofuran-2-yl]methyl}amino)phenyl]carbonyl}(methyl)amino]propanoic acid], on human glucagon receptor (setting [2]), the inhibition at 10 µM turned out to be 89%. Same read-out and setting: to `Cc1c(C(Nc2ccc(C(=O)N(C)CCC(=O)O)cc2)C2CCCCC2)oc2ccc(Oc3ccc(C#N)cn3)cc12` (stereo not drawn) [Example A202, 3-{[(4-{[{5-[(5-cyanopyridin-2-yl)oxy]-3-methyl-1-benzofuran-2-yl}(cyclohexyl)methyl]amino}phenyl)carbonyl](methyl)amino}-propanoic acid] belongs 86%. `Cc1c(C(Nc2ccc(C(=O)N(C)CCC(=O)O)cc2)C(C)C)oc2ccc(OC3CCSCC3)cc12` (stereo not drawn) [Example A204, 3-(methyl{[4-({2-methyl-1-[3-methyl-5-(tetrahydro-2H-thiopyran-4-yloxy)-1-benzofuran-2-yl]propyl}amino)phenyl]carbonyl}amino)propanoic acid]: the inhibition at 10 µM at human glucagon receptor (setting [2]) was 86%. Still for that read-out and setting: to `Cc1c(C(Nc2ccc(C(=O)N(C)CCC(=O)O)cc2)C(C)C)oc2ccc(Oc3ccc(C(F)(F)F)cn3)cc12` (stereo not drawn) [Example A206, 3-{methyl[(4-{[2-methyl-1-(3-methyl-5-{[5-(trifluoromethyl)pyridin-2-yl]oxy}-1-benzofuran-2-yl)propyl]amino}phenyl)carbonyl]amino}propanoic acid] belongs 70%.

`Cc1c(C(Nc2ccc(C(=O)N(C)CCC(=O)O)cc2)C2CCCC2)oc2c(F)cc(F)cc12` (stereo not drawn) [Example A208, 3-{[(4-{[cyclopentyl(5,7-difluoro-3-methyl-1-benzofuran-2-yl)methyl]amino}phenyl)carbonyl](methyl)amino}propanoic acid]: at human glucagon receptor (setting [2]), the inhibition at 10 µM worked out at 83%. On the same count and under the same terms, with `Cc1c(C(Nc2ccc(C(=O)N(C)CCC(=O)O)cc2)C2CCCCC2)oc2ccc(OCC3CCCO3)cc12` (stereo not drawn) [Example A209, 3-[{[4-({cyclohexyl[3-methyl-5-(tetrahydrofuran-2-ylmethoxy)-1-benzofuran-2-yl]methyl}amino)phenyl]carbonyl}(methyl)amino]propanoic acid] the figure was 90%. For `Cc1c(C(Nc2ccc(C(=O)N(C)CCC(=O)O)cn2)C(C)C)oc2ccc(OCC3CC3)cc12` (stereo not drawn) [Example A211, 3-[{[6-({1-[5-(cyclopropylmethoxy)-3-methyl-1-benzofuran-2-yl]-2-methylpropyl}amino)pyridin-3-yl]carbonyl}(methyl)amino]propanoic acid], the inhibition at 10 µM at human glucagon receptor (setting [2]) is 70%. On the same count and under the same terms, with `Cc1c(C(Nc2ccc(C(=O)N(C)CCC(=O)O)nc2)C(C)C)oc2ccc(OCC3CC3)cc12` (stereo not drawn) [Example A213, 3-[{[5-({1-[5-(cyclopropylmethoxy)-3-methyl-1-benzofuran-2-yl]-2-methylpropyl}amino)pyridin-2-yl]carbonyl}(methyl)amino]propanoic acid] the figure was 70%; with `COc1c(C(Nc2ccc(C(=O)N(C)CCC(=O)O)cc2)C2CCCCC2)oc2ccc(F)cc12` (stereo not drawn) [Example A214, 3-{[(4-{[cyclohexyl(5-fluoro-3-methoxy-1-benzofuran-2-yl)methyl]amino}phenyl)carbonyl](methyl)amino}propanoic acid], 75%. The same measure, in the same setting: to `COc1ccc2c(C(Nc3ccc(C(=O)N(C)CCC(=O)O)cc3)C3CCCCC3)c(C)oc2c1` (stereo not drawn) [Example A215, 3-{[(4-{[cyclohexyl(6-methoxy-2-methyl-1-benzofuran-3-yl)methyl]amino}phenyl)carbonyl](methyl)amino}propanoic acid] belongs 72%.
